Assay results as given in ChEMBL document CHEMBL1201862, “PubChem BioAssay data set” (2004).
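The compound was tested at five concentrations on cells cultured in 96-well plates, with a 48-hour exposure period. GI50: concentration for 50% inhibition of growth.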 Active and inactive are the calls of the source. Cut-off read from the data, not from the text of the source: active = GI50 up to about 1.1 µM and inactive = higher. Non-standard residues stand in square brackets, D forms with d. Residues, ends and D or L forms follow the SMILES beside them. *: point of attachment. NMeF = CN[CH](Cc1ccccc1)C(=O)O; NMeV = CN[CH](C(=O)O)C(C)C; Boc = CC(C)(C)OC(=O)*

What was measured:
Experiment in all cases: growth of human tumour cells (NCI), 48 h
[1] = system: BT-549
[2] = system: DMS-273
[3] = system: XF498
[4] = system: DLD-1
[5] = system: HOP-18
[6] = system: LXFL 529
[7] = system: DMS-114
[8] = system: RXF 631
[9] = system: KM-20L2

Row | Compound | GI50 [1] | GI50 [2] | GI50 [4] | GI50 [6] | other results
1 | Nc1ccccc1N/C=C\C(=O)C(Cl)(Cl)Cl | 22.9 µM (inactive) |  |  |  | 
2 | COc1cc(/C=C/c2sc3ccccc3[n+]2C)ccc1N(C)C | 0.368 µM (active) |  |  |  | 
3 | O=C1CCC(C(=O)O)C2=C1CCCC2 (stereo not given) | > 100 µM (inactive) | 17.1 µM (inactive) | > 100 µM (inactive) | > 100 µM (inactive) | GI50 [3]: > 100 µM (inactive); GI50 [5]: > 100 µM (inactive); GI50 [7]: > 100 µM (inactive)
4 | CC(=O)OCC1OC(NC(=S)Nn2c(-c3ccccc3)nc3ccccc3c2=O)C(OC(C)=O)C(OC(C)=O)C1OC(C)=O (stereo not given) | > 100 µM (inactive) |  |  |  | 
5 | Nc1ccccc1/N=N/c1c(S(=O)(=O)O)cc2cc(S(=O)(=O)O)cc(O)c2c1O | > 100 µM (inactive) |  |  |  | 
6 | CC1C2C=C(O)C(=O)C(C2=O)C1c1ccccc1 (stereo not given) |  | > 100 µM (inactive) | > 100 µM (inactive) | > 100 µM (inactive) | GI50 [8]: > 100 µM (inactive); GI50 [9]: 38.6 µM (inactive)
7 | CC(C)(C)N1C=[N+](C(C)(C)C)CC1 | > 100 µM (inactive) |  |  |  | 
8 | C=C1C(=O)OC2C1C(OC(=O)/C(C)=C/C)CC1(C)C(=O)CCC(=C)C21 (stereo not given) | 6.27 µM (inactive) |  |  |  | 
9 | c1cc2ccc1C1NCCCN1CCN1CCCNC1c1ccc(cc1)C1NCCCN1CCN1CCCNC21 (stereo not given) |  | > 100 µM (inactive) | > 100 µM (inactive) | 78.7 µM (inactive) | GI50 [3]: > 100 µM (inactive); GI50 [5]: > 100 µM (inactive); GI50 [9]: > 100 µM (inactive); GI50 [7]: > 100 µM (inactive)
10 | CN(C)c1ccccc1CC(c1c[nH]c2ccccc12)c1c[nH]c2ccccc12 |  | 13 µM (inactive) | 15.7 µM (inactive) |  | GI50 [3]: 17.3 µM (inactive); GI50 [9]: 10.7 µM (inactive); GI50 [7]: 7.62 µM (inactive)
11 | O=C(COc1ccc(OCC(=O)N2C(=O)CC/C2=N\c2ccc(Cl)cc2)cc1)N1C(=O)CS/C1=N\c1ccc(Cl)cc1 | 57.4 µM (inactive) |  |  |  | 
12 | CC(N)/C(N)=N/O (stereo not given) | > 100 µM (inactive) |  |  |  | 
13 | Cl/C(=C\C=N\c1ccc(I)cc1)c1ccc2ccccc2c1 | 16.9 µM (inactive) |  |  |  | 
14 | CN(Cc1cc(C(C)(C)C)cc(Br)c1O)Cc1cc(C(C)(C)C)cc(Br)c1O | 4 µM (inactive) |  |  |  | 
15 | C=C1C(=O)OC2C1CC[C@H](C)C13OC(=O)CC1[C@@]23C (stereo not given in full) |  | > 100 µM (inactive) | > 100 µM (inactive) | > 100 µM (inactive) | GI50 [7]: > 100 µM (inactive)
16 | O=S(=O)(CC1=NC2C=CC=CC2N=C1)NCc1ccccc1 (stereo not given) |  | > 100 µM (inactive) | > 100 µM (inactive) | > 100 µM (inactive) | GI50 [3]: 24.3 µM (inactive); GI50 [5]: > 100 µM (inactive); GI50 [9]: > 100 µM (inactive)
17 | c1ccc(CCCCNCc2cc(CNCCCCc3ccccc3)cc(CNCCCCc3ccccc3)c2)cc1 | 1.63 µM (inactive) |  |  |  | 

Row | Compound | GI50 [1] | GI50 [2] | GI50 [4] | GI50 [6] | other results
18 | COC(CC1(CCNc2ccccc2)C(=O)N(COCC[Si](C)(C)C)c2ccccc21)OC (stereo not given) | 17.2 µM (inactive) |  |  |  | 
19 | N#Cc1ccc(/N=N/N2CCCC2)cc1 | > 100 µM (inactive) |  |  |  | 
20 | CC(C)c1cc(C(C)C)c(S(=O)(=O)N=[N+]=[N-])c(C(C)C)c1 |  | 94 µM (inactive) | > 100 µM (inactive) | > 100 µM (inactive) | GI50 [8]: 59.8 µM (inactive); GI50 [3]: > 100 µM (inactive); GI50 [9]: > 100 µM (inactive)
21 | CCOC(=O)NC(C(=O)OCC)(N1CCN(c2cc3c(cc2F)c(=O)c(C(=O)O)cn3CC)CC1)C(F)(F)F (stereo not given) | > 100 µM (inactive) |  |  |  | 
22 | CC(C)C(NC(=O)OC(C)(C)C)C(=O)N(C)C(Cc1ccccc1)C(=O)N(C)C(C(=O)O)C(C)C (stereo not drawn) (Boc-Val-[NMeF]-[NMeV]-OH; configuration not given here) |  | > 100 µM (inactive) |  | > 100 µM (inactive) | GI50 [3]: > 100 µM (inactive); GI50 [9]: > 100 µM (inactive); GI50 [7]: > 100 µM (inactive)
23 | CC(C)c1cc2c(cc1S(=O)(=O)O)[C@@]1(C)CCC[C@@](C)(C(=O)O)C1CC2 (stereo not given in full) | > 100 µM (inactive) |  |  |  | 
24 | OCC1OC(n2cnc3c(Cl)nc(Nc4ccc(Cl)c(Cl)c4)nc32)CC1O (stereo not given) | 9.98 µM (inactive) |  |  |  | 
25 | COc1ccc(OC)c(/C(C)=N/NC(N)=S)c1 |  | > 100 µM (inactive) | > 100 µM (inactive) | > 100 µM (inactive) | GI50 [3]: > 100 µM (inactive); GI50 [5]: > 100 µM (inactive); GI50 [9]: > 100 µM (inactive); GI50 [7]: > 100 µM (inactive)
26 | COc1cc(S(=O)(=O)N/N=C/c2cc(Br)c(O)c(OC)c2)c(OC)cc1NC(C)=O | > 100 µM (inactive) |  |  |  | 
27 | CC1=CC(=O)N2C(OC[C@@H]2c2ccccc2)O1 (stereo not given in full) |  |  | > 100 µM (inactive) | > 100 µM (inactive) | GI50 [3]: > 100 µM (inactive); GI50 [5]: 20.7 µM (inactive); GI50 [9]: > 100 µM (inactive)
28 | COc1ccc(Nc2nc3ccc(C(F)(F)F)cc3nc2C(=O)O)cc1 | 2.71 µM (inactive) |  |  |  | 
29 | CC(CC=O)Nc1nn2c(=O)c3ccccc3nc2s1 (stereo not given) | > 100 µM (inactive) |  |  |  | 
30 | COc1cccc2c(=O)oc(-c3ccccc3C)nc12 | 21.5 µM (inactive) |  |  |  | 
31 | COC[C@@H](/N=C/c1ccc(OC)cc1)C(C)C | > 100 µM (inactive) |  |  |  | 
32 | CC1=N[C@@](C)(C2CC3C=CC2C3=O)COC1=O (stereo not given in full) | > 100 µM (inactive) |  |  |  | 
33 | COc1cc(C2C(Cl)C(=O)N2NC(=O)c2ccc(NC(C)=O)cc2)ccc1O (stereo not given) |  | > 100 µM (inactive) | > 100 µM (inactive) | > 100 µM (inactive) | GI50 [3]: > 100 µM (inactive); GI50 [9]: > 100 µM (inactive); GI50 [7]: > 100 µM (inactive)
